According to US9493466B2, “Treatment of cancer with TOR kinase inhibitors” (Signal Pharmaceuticals, LLC, priority 2011, dated 2016):

System: U87MG tumors
Experiment: U87MG human glioblastoma xenograft model (Compound 1)
Assay type: in vivo, SCID mice
Conditions: positive control, 4 mg/kg Q3D IP, 18 days
Method: U87MG Human Glioblastoma Xenograft Model (Compound 1). Efficacy Studies: Groups of female SCID mice bearing U87MG tumors (n=8-10/group) were dosed orally with vehicle or Compound 1 throughout the study, starting when tumor volumes reached approximately 200 mm^3. The twice daily (BID) dose groups were dosed with a 10-hour separation between morning and evening doses. In the positive control group, rapamycin was administered Q3D via intraperitoneal (IP) route. At the end of each study, plasma and/or tumor samples were collected.
Cell Line and Culture. U87MG cell line was obtained from American Tissue Culture Collection (ATCC) (Gaithersberg, Md.) and grown in growth medium containing MEM, 2 mM L-glutamine, 0.1 mM non-essential amino acids and 1 mM sodium pyruvate and 10% fetal bovine serum (FBS). The cells were detached from tissue culture flasks using trypsin-EDTA. After centrifugation, the cell pellets were suspended in phosphate buffered saline (PBS) and counted using a hemocytometer. The final volume was adjusted to 5×10^6 cells/0.1 mL of PBS.
Tumor Cell Inoculation. Mice were anesthetized with inhaled isoflurane and then inoculated with U87MG tumor cells subcutaneously on the right hind leg with 0.1 mL of a single cell suspension in PBS using a sterile 1 mL syringe fitted with a 26 gauge needle. Following inoculation, the mice were returned to microisolator cages
Randomization of Animals. Following inoculation, tumors were allowed to grow to about 200 mm^3 prior to randomization. The typical number of days required for tumors to reach 200 mm^3 was 14-15 days. The tumor of each animal was measured and animals with tumors ranging between 175-250 mm^3 were included in the study. Animals from the pool were then distributed randomly into various cages and the cages were randomly assigned to vehicle, positive control, or test article groups. All of the mice were tagged with metal ear tags on the right ear.
Test Article Preparation and Administration. Suspensions of Compound 1 were prepared in aqueous 0.5% CMC and 0.25% Tween-80. The formulations were homogenized using a Teflon™ pestle and mortar (Potter-Elvehjem tissue grinder). Between the doses, the formulated compound was stored under constant stirring using a magnetic stirrer at 4° C. in the dark. The test article and vehicle were administered by oral gavage. The positive control, rapamycin, was prepared as solution in 2% ethanol, 45% polyethyleneglycol 400, and 53% saline and administered by IP injection. Sterile syringes and gavage needles were used for compound administration. All of the procedures including injections were done in biosafety cabinets disinfected with 70% ethanol prior to use.
Tumor Measurements. Tumor volumes were determined prior to the initiation of treatment and were considered as the starting volumes. Thereafter, tumors were measured twice a week for the duration of the study. The long and short axes of each tumor were measured using a digital caliper in millimeters. Tumor volumes were calculated using the formula: width^2×length/2. The tumor volumes were expressed in cubic millimeters (mm^3).
Tumor Growth Delay (TGD) Calculations. Tumor growth delay is the difference in days for treated versus control tumors to reach a volume of 1000 mm^3. The TGD was calculated from the data plotted in a graph format.
Body Weight Measurements. Initial body weights were recorded prior to the initiation of treatment using a digital scale. The percent body weight change during the course of the study was calculated using initial body weight measurements. Body weights of each animal were measured twice a week at the same time as the tumor measurements. Body weights were measured more frequently if significant decreases were noted during the course of the study.

CO[C@H]1C[C@@H]2CC[C@@H](C)[C@@](O)(O2)C(=O)C(=O)N2CCCC[C@H]2C(=O)O[C@H]([C@H](C)C[C@@H]2CC[C@@H](O)[C@H](OC)C2)CC(=O)[C@H](C)/C=C(\C)[C@@H](O)[C@@H](OC)C(=O)[C@H](C)C[C@H](C)/C=C/C=C/C=C/1C [rapamycin, reference compound]
change in body weight: No significant change
